The test system of test [1] is M. tuberculosis strain susceptible to rifampicin and isoniazid. As to the kind of experiment: tuberculostatic activity assay, strain susceptible to rifampicin and isoniazid. To be noted: for number of M. tuberculosis colonies/standard inoculum volume (0.2 mL): 28 days, 37 °C; for growth inhibition of mycobacteria (in words): 1 µg/mL. The class given is cell-based, Mycobacterium tuberculosis.

A further test deals with hCA I. On the set-up: method as in PMID 31794211. To be noted: stopped-flow CO2 hydrase assay; cited from earlier work.
In the next test the target is hCA II. On the set-up: method as in PMID 31794211. To be noted: stopped-flow CO2 hydrase assay; cited from earlier work.
A further test addresses T1, MtCA2 (Mycobacterium tuberculosis, UniProt P9WPJ9).
T1 construct: made in house
As to the kind of experiment: stopped-flow CO2 hydrase assay, MtCA2. The class given is biochemical. To be noted: for Selectivity Index (SI) hCA II/MtCA2: ratio of Ki values. The method, then: BTDs 2a-2t were submitted to a stopped-flow CO2 hydrase kinetic assay to evaluate the inhibitory profile against the mycobacterial β-CAs MtCA1, MtCA2, MtCA3 (Table 1), in comparison to the inhibitory effect on hCA I and II, which were selected due to their abundance in the human organism and thus off-target in this study.
A stopped-flow instrument from Applied Photophysics was utilized to assess the inhibition of CA-catalyzed CO2 hydration activity. […] The assay employed 20 mM HEPES (pH 8.3) as a buffer and 20 mM Na2SO4 to maintain constant ionic strength. The investigation focused on the initial rates of the CA-catalyzed CO2 hydration reaction over a duration of 10–100 s. CO2 concentrations ranging from 1.7 to 17 mM were employed to determine kinetic parameters and inhibition constants. For each inhibitor, a minimum of six traces of the initial 5–10% of the reaction were utilized to determine the initial velocity. Uncatalyzed rates were determined in a similar manner and subtracted from the overall observed rates. Inhibitor stock solutions (0.1 mM) were initially prepared in distilled–deionized water, followed by subsequent dilutions up to 0.01 nM with the assay buffer. To allow for the formation of the E-I complex, inhibitor and enzyme solutions were preincubated together for 15 min at room temperature before the assay. The inhibition constants were derived through nonlinear least-squares methods using PRISM and the Cheng–Prusoff equation, as previously reported, representing the mean from at least three different determinations.

The next test deals with T2, MtCA1 (Mycobacterium tuberculosis, UniProt P9WPJ7).
T2 construct: made in house
Put plainly: biochemical. To be noted: for Selectivity Index (SI) hCA II/MtCA1: ratio of Ki values.

The target in another test is MtCA3 (Mycobacterium tuberculosis, UniProt P96878). As to the kind of experiment: biochemical. To be noted: for Selectivity Index (SI) hCA II/MtCA3: ratio of Ki values; for Ki: stopped-flow CO2 hydrase assay, mean from three assays.
Setting [2] is: 1 µg/mL in Lowenstein Jensen medium.
[3] abbreviates: 2 µg/mL in Lowenstein Jensen medium.
Where [4] appears, read: stopped-flow CO2 hydrase assay, mean from three assays, read-out: Ki MtCA1.

Where two headings read alike, the source gives them in different places.

T2 sequence (P9WPJ7 whole entry): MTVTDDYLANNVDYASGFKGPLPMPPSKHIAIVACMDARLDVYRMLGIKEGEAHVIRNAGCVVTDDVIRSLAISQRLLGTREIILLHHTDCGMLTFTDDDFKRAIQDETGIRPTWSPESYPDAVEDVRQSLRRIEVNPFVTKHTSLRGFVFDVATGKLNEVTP
Sequence of MtCA3 (P96878 550-764 limits assumed): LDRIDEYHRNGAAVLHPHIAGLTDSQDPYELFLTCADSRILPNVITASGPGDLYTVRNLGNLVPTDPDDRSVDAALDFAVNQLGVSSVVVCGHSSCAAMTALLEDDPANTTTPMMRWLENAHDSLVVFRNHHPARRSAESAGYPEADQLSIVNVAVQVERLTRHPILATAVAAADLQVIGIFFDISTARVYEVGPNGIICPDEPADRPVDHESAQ
T1 sequence (P9WPJ9 whole entry, looked up): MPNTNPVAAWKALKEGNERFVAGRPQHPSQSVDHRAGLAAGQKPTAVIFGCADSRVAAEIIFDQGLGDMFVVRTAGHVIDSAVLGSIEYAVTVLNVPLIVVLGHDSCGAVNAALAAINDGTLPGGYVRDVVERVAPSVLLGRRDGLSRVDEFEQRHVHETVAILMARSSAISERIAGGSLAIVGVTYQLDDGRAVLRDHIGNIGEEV

As for `CC(=O)/N=c1/sc(S(N)(=O)=O)nn1C` [MTZ, reference compound], the “number of M. tuberculosis colonies/standard inoculum volume (0.2 mL)” value in test [1] (setting [2]) is listed as 30–100 colonies; in test [1] (setting [3]), 0 colonies.

By Ki is commonly meant the dissociation constant of the complex between target and ligand, obtained from inhibition or displacement. In the case of `O=C1Nc2ccc(F)cc2S(=O)(=O)N1` [2h], the Ki is 1290 nM at hCA I, 534 nM on hCA II, 42.5 ± 1.6 nM at MtCA2 and 1830 ± 137 nM on MtCA1 (setting [4]). For the same compound, the “growth inhibition of mycobacteria (in words)” value (“growth inhibition” for short) in test [1] is on record as “active”. In addition, the “number of M. tuberculosis colonies/standard inoculum volume (0.2 mL)” value in test [1] (setting [2]) and in test [1] (setting [3]) was 0 colonies in each case.

Regarding `O=C1Nc2ccccc2S(=O)(=O)N1` [2a], the Ki at hCA I is 866 nM; on MtCA3, 28.7 ± 2.1 nM; at hCA II, 150 nM; at MtCA2, 68.6 ± 3.1 nM; on MtCA1 (setting [4]), 1680 ± 93 nM. The “Selectivity Index (SI) hCA II/MtCA3” value at MtCA3 was 5.2. Further, on MtCA2, the “Selectivity Index (SI) hCA II/MtCA2” value was found to be 2.2. In test [1] (setting [3]), the “number of M. tuberculosis colonies/standard inoculum volume (0.2 mL)” value came to 0 colonies. At MtCA1, the “Selectivity Index (SI) hCA II/MtCA1” value was determined as 0.1.

With `Cc1cc(C)c2c(c1)S(=O)(=O)NC(=O)N2` [2d], the Ki on hCA I is 1270 nM; on MtCA3, 15.1 ± 0.9 nM; on hCA II, 764 nM; at MtCA1 (setting [4]) it was 934 ± 78 nM. Also, in test [1], the “growth inhibition” value was “active”. Moreover, the “number of M. tuberculosis colonies/standard inoculum volume (0.2 mL)” value in test [1] (setting [2]) and in test [1] (setting [3]) was 0 colonies each time.

On to `CN1C(=O)NS(=O)(=O)c2ccccc21` [2o], for which the Ki was 3410 nM on hCA I; 32.5 ± 2.4 nM on MtCA3; 853 nM at hCA II; 39.6 ± 2.1 nM at MtCA2; 556 ± 37 nM at MtCA1 (setting [4]). The “Selectivity Index (SI) hCA II/MtCA3” value at MtCA3 is recorded as 26.2. The “Selectivity Index (SI) hCA II/MtCA2” value at MtCA2 came to 21.5. Moreover, the “Selectivity Index (SI) hCA II/MtCA1” value on MtCA1 is 1.5.

For `CN1C(=O)NS(=O)(=O)c2cc(Cl)ccc21` [2p], the Ki at hCA I was over 10000 nM; at MtCA3, 46 ± 3.3 nM; on hCA II, 2340 nM; at MtCA2 it was 135 ± 9 nM; at MtCA1 (setting [4]), 1180 ± 75 nM. Also, the “Selectivity Index (SI) hCA II/MtCA3” value at MtCA3 is 50.8. On MtCA2, the “Selectivity Index (SI) hCA II/MtCA2” value was 17.3. The “Selectivity Index (SI) hCA II/MtCA1” value on MtCA1 was 2.0.

With `Cc1cc(C)c2c(c1)NC(=O)NS2(=O)=O` [2f], the Ki is 1920 nM on hCA I; 2250 ± 168 nM on MtCA3; 2940 nM at hCA II; 4480 ± 277 nM on MtCA2; over 10000 nM at MtCA1 (setting [4]). Further, the “Selectivity Index (SI) hCA II/MtCA3” value on MtCA3 is 1.3. Further, at MtCA2, the “Selectivity Index (SI) hCA II/MtCA2” value is recorded as 0.7. In addition, the “Selectivity Index (SI) hCA II/MtCA1” value at MtCA1 is given as under 0.3.

For `O=C1Nc2ccc(C(=O)O)cc2S(=O)(=O)N1` [2s], the Ki at hCA I is over 10000 nM; on MtCA3 it was 101 ± 5 nM; at hCA II, 6780 nM; on MtCA2 it was 223 ± 18 nM; on MtCA1 it was 4870 ± 315 nM. Also, at MtCA2, the “Selectivity Index (SI) hCA II/MtCA2” value came out at 30.4. In addition, at MtCA1, the “Selectivity Index (SI) hCA II/MtCA1” value is 1.4.

Regarding `CC(=O)Nc1nnc(S(N)(=O)=O)s1` [AAZ, acetazolamide, reference compound], the “growth inhibition” value in test [1] is recorded as “active”. In addition, the “number of M. tuberculosis colonies/standard inoculum volume (0.2 mL)” value in test [1] (setting [2]) and in test [1] (setting [3]) was 0 colonies throughout.

`O=C1Nc2c(Br)cccc2S(=O)(=O)N1` [2k]: the Ki on hCA I is 2320 nM; at MtCA3, 82.4 ± 4.9 nM; on hCA II it was 527 nM; at MtCA2, 458 ± 25 nM; on MtCA1 (setting [4]), 993 ± 33 nM. Moreover, the “Selectivity Index (SI) hCA II/MtCA3” value on MtCA3 is given as 6.4. At MtCA2, the “Selectivity Index (SI) hCA II/MtCA2” value is given as 1.1. Further, at MtCA1, the “Selectivity Index (SI) hCA II/MtCA1” value was 0.5.

Values taken from paper PMC10932284 (International Journal of Molecular Sciences, 2024).
